Each molecule was assayed on CAL-148 (assay: normalised response (% of control), CellTiter-Glo; higher = more viable cells (100 = DMSO, 0 = benzethonium chloride kill control)). Details: incubation time: 72 h.
Procedure, shortened: (§1)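 After 72 h with compound in 384-well plates, breast cancer cell lines seeded as 20 µl suspension were read for CellTox Green fluorescence at 485/520 nm. CellTiter-Glo luminescence was then read after 10 min at room temperature. Compound was present at 5 concentrations in 10-fold steps over a 10,000-fold range set per compound, and plates were normalised to 0.1 % DMSO (100) and a positive kill control (0). Values are normalised signals, each at a single concentration.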

Compound | normalised response [%]
CC(=O)Nc1ccc(C(=O)Nc2ccccc2N)cc1 [Tacedinaline] (0.1 nM) | 93.2

These molecules were tested on DU-4475 in the same assay as above. Details: incubation time: 72 h.
Procedure, shortened: as §1

Compound | normalised response [%]
C[C@]12CC[C@@H]3c4ccc(O)cc4C[C@@H](CCCCCCCCC[S+]([O-])CCCC(F)(F)C(F)(F)F)[C@H]3[C@@H]1CC[C@@H]2O (stereo not given in full) [Fulvestrant] (100 nM) | 104
CS(=O)(=O)c1ccc(C2=C(c3ccccc3)C(=O)OC2)cc1 [Rofecoxib] (1 nM) | 106
CCCCCCCCCCCCCCCCCCOP(=O)([O-])OC1CC[N+](C)(C)CC1 [Perifosine] (2.5 nM) | 94.7
O=C(O)c1ccc(-c2c[nH]c3ncc(-c4ccccc4)cc23)cc1C1CCCC1 (1 nM) | 97.3
N#CCNC(=O)c1ccc(-c2ccnc(Nc3ccc(N4CCOCC4)cc3)n2)cc1 [Momelotinib] (10 nM) | 97.2
O=P1(NCCCl)OCCCN1CCCl (stereo not given) [Ifosfamide] (10 nM) | 92.5
Oc1nc(-c2ccc(C(F)(F)F)cc2)nc2c1CSCC2 [XAV-939] (10 nM) | 104
O=C1CCC(N2C(=O)c3ccccc3C2=O)C(=O)N1 (stereo not given) [Thalidomide] (10 nM) | 97.2
Cn1c(CCCC(=O)O)nc2cc(N(CCCl)CCCl)ccc21 [Bendamustine] (10 nM) | 111
Cc1ccc(C(=O)N(CCCN)[C@@H](c2oc3cc(Cl)ccc3c(=O)c2Cc2ccccc2)C(C)C)cc1 (0.01 nM) | 96.6
CCC1(c2ccc(N)cc2)CCC(=O)NC1=O (stereo not given) [Aminoglutethimide] (10 nM) | 104
O=C(CCCCCCC(=O)Nc1ccc([C@H]2O[C@@H](CSc3nc(-c4ccccc4)c(-c4ccccc4)o3)C[C@@H](c3ccc(CO)cc3)O2)cc1)NO [Tubacin] (10 nM) | 101
NC(=O)Nc1cc(-c2cccc(F)c2)sc1C(=O)N[C@H]1CCCNC1 [AZD7762] (0.1 nM) | 108
CC(=O)Nc1ccc(C(=O)Nc2ccccc2N)cc1 [Tacedinaline] (0.1 nM) | 100

What follows are molecules tested on CAL-51 in the same assay as above. Details: incubation time: 72 h.
Procedure, shortened: as §1

Compound | normalised response [%]
C[C@]12CC[C@@H]3c4ccc(O)cc4C[C@@H](CCCCCCCCC[S+]([O-])CCCC(F)(F)C(F)(F)F)[C@H]3[C@@H]1CC[C@@H]2O (stereo not given in full) [Fulvestrant] (100 nM) | 114
CS(=O)(=O)c1ccc(C2=C(c3ccccc3)C(=O)OC2)cc1 [Rofecoxib] (1 nM) | 69.4
CCCCCCCCCCCCCCCCCCOP(=O)([O-])OC1CC[N+](C)(C)CC1 [Perifosine] (2.5 nM) | 81
O=C(O)c1ccc(-c2c[nH]c3ncc(-c4ccccc4)cc23)cc1C1CCCC1 (1 nM) | 125
N#CCNC(=O)c1ccc(-c2ccnc(Nc3ccc(N4CCOCC4)cc3)n2)cc1 [Momelotinib] (10 nM) | 80.9
O=P1(NCCCl)OCCCN1CCCl (stereo not given) [Ifosfamide] (10 nM) | 118
Oc1nc(-c2ccc(C(F)(F)F)cc2)nc2c1CSCC2 [XAV-939] (10 nM) | 78.4
O=C1CCC(N2C(=O)c3ccccc3C2=O)C(=O)N1 (stereo not given) [Thalidomide] (10 nM) | 65.4
Cn1c(CCCC(=O)O)nc2cc(N(CCCl)CCCl)ccc21 [Bendamustine] (10 nM) | 100
Cc1ccc(C(=O)N(CCCN)[C@@H](c2oc3cc(Cl)ccc3c(=O)c2Cc2ccccc2)C(C)C)cc1 (0.01 nM) | 81.7
CCC1(c2ccc(N)cc2)CCC(=O)NC1=O (stereo not given) [Aminoglutethimide] (10 nM) | 151
O=C(CCCCCCC(=O)Nc1ccc([C@H]2O[C@@H](CSc3nc(-c4ccccc4)c(-c4ccccc4)o3)C[C@@H](c3ccc(CO)cc3)O2)cc1)NO [Tubacin] (10 nM) | 110
NC(=O)Nc1cc(-c2cccc(F)c2)sc1C(=O)N[C@H]1CCCNC1 [AZD7762] (0.1 nM) | 77
CC(=O)Nc1ccc(C(=O)Nc2ccccc2N)cc1 [Tacedinaline] (0.1 nM) | 113

These molecules were tested on HCC1143 in the same assay as above. Details: incubation time: 72 h.
Procedure, shortened: as §1

Compound | normalised response [%]
C[C@]12CC[C@@H]3c4ccc(O)cc4C[C@@H](CCCCCCCCC[S+]([O-])CCCC(F)(F)C(F)(F)F)[C@H]3[C@@H]1CC[C@@H]2O (stereo not given in full) [Fulvestrant] (100 nM) | 99.3
CS(=O)(=O)c1ccc(C2=C(c3ccccc3)C(=O)OC2)cc1 [Rofecoxib] (1 nM) | 110
CCCCCCCCCCCCCCCCCCOP(=O)([O-])OC1CC[N+](C)(C)CC1 [Perifosine] (2.5 nM) | 102
O=C(O)c1ccc(-c2c[nH]c3ncc(-c4ccccc4)cc23)cc1C1CCCC1 (1 nM) | 97.5
N#CCNC(=O)c1ccc(-c2ccnc(Nc3ccc(N4CCOCC4)cc3)n2)cc1 [Momelotinib] (10 nM) | 100
O=P1(NCCCl)OCCCN1CCCl (stereo not given) [Ifosfamide] (10 nM) | 98.1
Oc1nc(-c2ccc(C(F)(F)F)cc2)nc2c1CSCC2 [XAV-939] (10 nM) | 99.8
O=C1CCC(N2C(=O)c3ccccc3C2=O)C(=O)N1 (stereo not given) [Thalidomide] (10 nM) | 97.3
Cn1c(CCCC(=O)O)nc2cc(N(CCCl)CCCl)ccc21 [Bendamustine] (10 nM) | 107
Cc1ccc(C(=O)N(CCCN)[C@@H](c2oc3cc(Cl)ccc3c(=O)c2Cc2ccccc2)C(C)C)cc1 (0.01 nM) | 102
CCC1(c2ccc(N)cc2)CCC(=O)NC1=O (stereo not given) [Aminoglutethimide] (10 nM) | 108
O=C(CCCCCCC(=O)Nc1ccc([C@H]2O[C@@H](CSc3nc(-c4ccccc4)c(-c4ccccc4)o3)C[C@@H](c3ccc(CO)cc3)O2)cc1)NO [Tubacin] (10 nM) | 103
NC(=O)Nc1cc(-c2cccc(F)c2)sc1C(=O)N[C@H]1CCCNC1 [AZD7762] (0.1 nM) | 98.4
CC(=O)Nc1ccc(C(=O)Nc2ccccc2N)cc1 [Tacedinaline] (0.1 nM) | 92.9

Each molecule was assayed on MFM-223 in the same assay as above. Details: incubation time: 72 h.
Procedure, shortened: as §1

Compound | normalised response [%]
C[C@]12CC[C@@H]3c4ccc(O)cc4C[C@@H](CCCCCCCCC[S+]([O-])CCCC(F)(F)C(F)(F)F)[C@H]3[C@@H]1CC[C@@H]2O (stereo not given in full) [Fulvestrant] (100 nM) | 103
CS(=O)(=O)c1ccc(C2=C(c3ccccc3)C(=O)OC2)cc1 [Rofecoxib] (1 nM) | 111
CCCCCCCCCCCCCCCCCCOP(=O)([O-])OC1CC[N+](C)(C)CC1 [Perifosine] (2.5 nM) | 92.8
O=C(O)c1ccc(-c2c[nH]c3ncc(-c4ccccc4)cc23)cc1C1CCCC1 (1 nM) | 94.5
N#CCNC(=O)c1ccc(-c2ccnc(Nc3ccc(N4CCOCC4)cc3)n2)cc1 [Momelotinib] (10 nM) | 94.2
O=P1(NCCCl)OCCCN1CCCl (stereo not given) [Ifosfamide] (10 nM) | 89.1
Oc1nc(-c2ccc(C(F)(F)F)cc2)nc2c1CSCC2 [XAV-939] (10 nM) | 98.9
O=C1CCC(N2C(=O)c3ccccc3C2=O)C(=O)N1 (stereo not given) [Thalidomide] (10 nM) | 97.5
Cn1c(CCCC(=O)O)nc2cc(N(CCCl)CCCl)ccc21 [Bendamustine] (10 nM) | 106
Cc1ccc(C(=O)N(CCCN)[C@@H](c2oc3cc(Cl)ccc3c(=O)c2Cc2ccccc2)C(C)C)cc1 (0.01 nM) | 92.1
CCC1(c2ccc(N)cc2)CCC(=O)NC1=O (stereo not given) [Aminoglutethimide] (10 nM) | 101
O=C(CCCCCCC(=O)Nc1ccc([C@H]2O[C@@H](CSc3nc(-c4ccccc4)c(-c4ccccc4)o3)C[C@@H](c3ccc(CO)cc3)O2)cc1)NO [Tubacin] (10 nM) | 97.9
NC(=O)Nc1cc(-c2cccc(F)c2)sc1C(=O)N[C@H]1CCCNC1 [AZD7762] (0.1 nM) | 109
CC(=O)Nc1ccc(C(=O)Nc2ccccc2N)cc1 [Tacedinaline] (0.1 nM) | 97.1

What follows are molecules tested on MDA-MB-231 in the same assay as above. Details: incubation time: 72 h.
Procedure, shortened: as §1

Compound | normalised response [%]
C[C@]12CC[C@@H]3c4ccc(O)cc4C[C@@H](CCCCCCCCC[S+]([O-])CCCC(F)(F)C(F)(F)F)[C@H]3[C@@H]1CC[C@@H]2O (stereo not given in full) [Fulvestrant] (100 nM) | 104
CS(=O)(=O)c1ccc(C2=C(c3ccccc3)C(=O)OC2)cc1 [Rofecoxib] (1 nM) | 104
CCCCCCCCCCCCCCCCCCOP(=O)([O-])OC1CC[N+](C)(C)CC1 [Perifosine] (2.5 nM) | 100
O=C(O)c1ccc(-c2c[nH]c3ncc(-c4ccccc4)cc23)cc1C1CCCC1 (1 nM) | 94.2
N#CCNC(=O)c1ccc(-c2ccnc(Nc3ccc(N4CCOCC4)cc3)n2)cc1 [Momelotinib] (10 nM) | 97.4
O=P1(NCCCl)OCCCN1CCCl (stereo not given) [Ifosfamide] (10 nM) | 101
Oc1nc(-c2ccc(C(F)(F)F)cc2)nc2c1CSCC2 [XAV-939] (10 nM) | 95.4
O=C1CCC(N2C(=O)c3ccccc3C2=O)C(=O)N1 (stereo not given) [Thalidomide] (10 nM) | 98.4
Cn1c(CCCC(=O)O)nc2cc(N(CCCl)CCCl)ccc21 [Bendamustine] (10 nM) | 103
Cc1ccc(C(=O)N(CCCN)[C@@H](c2oc3cc(Cl)ccc3c(=O)c2Cc2ccccc2)C(C)C)cc1 (0.01 nM) | 99
CCC1(c2ccc(N)cc2)CCC(=O)NC1=O (stereo not given) [Aminoglutethimide] (10 nM) | 104
O=C(CCCCCCC(=O)Nc1ccc([C@H]2O[C@@H](CSc3nc(-c4ccccc4)c(-c4ccccc4)o3)C[C@@H](c3ccc(CO)cc3)O2)cc1)NO [Tubacin] (10 nM) | 94.4
NC(=O)Nc1cc(-c2cccc(F)c2)sc1C(=O)N[C@H]1CCCNC1 [AZD7762] (0.1 nM) | 105
